PubChem BioAssay AID1963430 (Molecular Pharmacology Branch, DTP, NCI, 2024)

Tested on: 521955-158-R2-J5-PDC complex spheroid growth, % test/control
Experiment: Anticancer human tumor 521955-158-R2-J5-PDC patient-derived pancreatic carcinoma cell line growth inhibition [Asc]
Settings: for IC50: curve of first compound; for viability, T/C: stronger effect = lower value
Summary of the method: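 Complex spheroids combining tumor cells with HUVEC endothelial cells and human MSCs, at 37 degrees C, 5% CO2; agents tested alone or combined, half-log dilutions from at or near clinical Cmax, or 10 microM if Cmax unknown.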

[1] = second compound 0.01 µM, first compound 0.0316 µM
[2] = second compound 0.01 µM, first compound 0.1 µM
[3] = second compound 0.0316 µM, first compound 0.0316 µM
[4] = second compound 0.0316 µM, first compound 0.1 µM
[5] = second compound 0.1 µM, first compound 0.0316 µM
[6] = second compound 0.1 µM, first compound 0.1 µM
[7] = second compound 0.316 µM, first compound 0.0316 µM
[8] = second compound 0.316 µM, first compound 0.1 µM
[9] = second compound 1 µM, first compound 0.0316 µM
[10] = second compound 1 µM, first compound 0.1 µM
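Also: spheroids exposed to agents for 7 days before readout.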
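For viability, T/C in this document: 100% = DMSO vehicle control viability.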

Cc1nc(N2CCC3(CC2)COC(C)C3N)c(CO)nc1Sc1ccnc(N)c1Cl (stereo not given) + CCN1C(C(=O)NC23CCC(C(=O)O)(CC2)CC3)C(c2cccc(Cl)c2F)C2(C(=O)Nc3cc(Cl)ccc32)C12CCCCC2
IC50 (second compound 0.03 µM): 1500 nM | IC50 (second compound 0.0949 µM): > 3000 nM | IC50 (second compound 0.3 µM): 1310 nM | IC50 (second compound 0.949 µM): > 3000 nM | IC50 (second compound 3 µM): > 3000 nM | viability, T/C (second compound 0.03 µM, first compound 0.00949 µM): 75.7% | viability, T/C (second compound 0.03 µM, first compound 0.03 µM): 75.9% | viability, T/C (second compound 0.03 µM, first compound 0.0949 µM): 65.8% | viability, T/C (second compound 0.03 µM, first compound 0.3 µM): 60.8% | viability, T/C (second compound 0.03 µM, first compound 0.949 µM): 47.5% | viability, T/C (second compound 0.03 µM, first compound 3 µM): 50.3% | viability, T/C (second compound 0.0949 µM, first compound 0.00949 µM): 88.3% | viability, T/C (second compound 0.0949 µM, first compound 0.03 µM): 95.6% | viability, T/C (second compound 0.0949 µM, first compound 0.0949 µM): 70.2% | viability, T/C (second compound 0.0949 µM, first compound 0.3 µM): 80.2% | viability, T/C (second compound 0.0949 µM, first compound 0.949 µM): 70.8% | viability, T/C (second compound 0.0949 µM, first compound 3 µM): 57.6% | viability, T/C (second compound 0.3 µM, first compound 0.00949 µM): 88.5% | viability, T/C (second compound 0.3 µM, first compound 0.03 µM): 87.1% | viability, T/C (second compound 0.3 µM, first compound 0.0949 µM): 71.2% | viability, T/C (second compound 0.3 µM, first compound 0.3 µM): 59.2% | viability, T/C (second compound 0.3 µM, first compound 0.949 µM): 62% | viability, T/C (second compound 0.3 µM, first compound 3 µM): 37.8% | viability, T/C (second compound 0.949 µM, first compound 0.00949 µM): 97.7% | viability, T/C (second compound 0.949 µM, first compound 0.03 µM): 87.8% | viability, T/C (second compound 0.949 µM, first compound 0.0949 µM): 85% | viability, T/C (second compound 0.949 µM, first compound 0.3 µM): 67.2% | viability, T/C (second compound 0.949 µM, first compound 0.949 µM): 68.1% | viability, T/C (second compound 0.949 µM, first compound 3 µM): 69.5% | viability, T/C (second compound 3 µM, first compound 0.00949 µM): 139% | viability, T/C (second compound 3 µM, first compound 0.03 µM): 122% | viability, T/C (second compound 3 µM, first compound 0.0949 µM): 101% | viability, T/C (second compound 3 µM, first compound 0.3 µM): 96.6% | viability, T/C (second compound 3 µM, first compound 0.949 µM): 90.6% | viability, T/C (second compound 3 µM, first compound 3 µM): 99%

Cn1ncnc1[C@H]1c2n[nH]c(=O)c3cc(F)cc(c23)N[C@@H]1c1ccc(F)cc1 + CNC(C)C(=O)NC1CN(S(=O)(=O)c2cccc(S(=O)(=O)N3CCC4CCC(C(=O)NC(c5ccccc5)c5ccccc5)N4C(=O)C(NC(=O)C(C)NC)C3)c2)CCC2CCC(C(=O)NC(c3ccccc3)c3ccccc3)N2C1=O
IC50 (second compound 0.01 µM): > 100 nM | IC50 (second compound 0.0316 µM): > 100 nM | IC50 (second compound 0.1 µM): > 100 nM | IC50 (second compound 0.316 µM): > 100 nM | IC50 (second compound 1 µM): > 100 nM | viability, T/C (second compound 0.01 µM, first compound 0.000316 µM): 103% | viability, T/C (second compound 0.01 µM, first compound 0.001 µM): 103% | viability, T/C (second compound 0.01 µM, first compound 0.00316 µM): 85.7% | viability, T/C (second compound 0.01 µM, first compound 0.01 µM): 65.6% | viability, T/C [1]: 65.4% | viability, T/C [2]: 71.9% | viability, T/C (second compound 0.0316 µM, first compound 0.000316 µM): 103% | viability, T/C (second compound 0.0316 µM, first compound 0.001 µM): 102% | viability, T/C (second compound 0.0316 µM, first compound 0.00316 µM): 89.6% | viability, T/C (second compound 0.0316 µM, first compound 0.01 µM): 78% | viability, T/C [3]: 62.3% | viability, T/C [4]: 64.1% | viability, T/C (second compound 0.1 µM, first compound 0.000316 µM): 80.8% | viability, T/C (second compound 0.1 µM, first compound 0.001 µM): 108% | viability, T/C (second compound 0.1 µM, first compound 0.00316 µM): 91% | viability, T/C (second compound 0.1 µM, first compound 0.01 µM): 76.5% | viability, T/C [5]: 86.9% | viability, T/C [6]: 56.2% | viability, T/C (second compound 0.316 µM, first compound 0.000316 µM): 100% | viability, T/C (second compound 0.316 µM, first compound 0.001 µM): 83% | viability, T/C (second compound 0.316 µM, first compound 0.00316 µM): 96.4% | viability, T/C (second compound 0.316 µM, first compound 0.01 µM): 79.2% | viability, T/C [7]: 73.4% | viability, T/C [8]: 63.2% | viability, T/C (second compound 1 µM, first compound 0.000316 µM): 108% | viability, T/C (second compound 1 µM, first compound 0.001 µM): 75.1% | viability, T/C (second compound 1 µM, first compound 0.00316 µM): 102% | viability, T/C (second compound 1 µM, first compound 0.01 µM): 89.5% | viability, T/C [9]: 68.3% | viability, T/C [10]: 86.6%

O=C(c1cc(Cc2n[nH]c(=O)c3ccccc23)ccc1F)N1CCN(C(=O)C2CC2)CC1 + CNC(C)C(=O)NC1CN(S(=O)(=O)c2cccc(S(=O)(=O)N3CCC4CCC(C(=O)NC(c5ccccc5)c5ccccc5)N4C(=O)C(NC(=O)C(C)NC)C3)c2)CCC2CCC(C(=O)NC(c3ccccc3)c3ccccc3)N2C1=O
IC50 (second compound 0.01 µM): > 10000 nM | IC50 (second compound 0.0316 µM): > 10000 nM | IC50 (second compound 0.1 µM): > 10000 nM | IC50 (second compound 0.316 µM): > 10000 nM | IC50 (second compound 1 µM): > 10000 nM | viability, T/C [1]: 74.8% | viability, T/C [2]: 92.3% | viability, T/C (second compound 0.01 µM, first compound 0.316 µM): 60.6% | viability, T/C (second compound 0.01 µM, first compound 1 µM): 66.1% | viability, T/C (second compound 0.01 µM, first compound 3.16 µM): 73.4% | viability, T/C (second compound 0.01 µM, first compound 10 µM): 64.3% | viability, T/C [3]: 66.8% | viability, T/C [4]: 77.8% | viability, T/C (second compound 0.0316 µM, first compound 0.316 µM): 98.6% | viability, T/C (second compound 0.0316 µM, first compound 1 µM): 75.8% | viability, T/C (second compound 0.0316 µM, first compound 3.16 µM): 64.9% | viability, T/C (second compound 0.0316 µM, first compound 10 µM): 64.6% | viability, T/C [5]: 71.8% | viability, T/C [6]: 87.9% | viability, T/C (second compound 0.1 µM, first compound 0.316 µM): 76.4% | viability, T/C (second compound 0.1 µM, first compound 1 µM): 61.1% | viability, T/C (second compound 0.1 µM, first compound 3.16 µM): 74.6% | viability, T/C (second compound 0.1 µM, first compound 10 µM): 73.2% | viability, T/C [7]: 89% | viability, T/C [8]: 95.7% | viability, T/C (second compound 0.316 µM, first compound 0.316 µM): 82.1% | viability, T/C (second compound 0.316 µM, first compound 1 µM): 71.2% | viability, T/C (second compound 0.316 µM, first compound 3.16 µM): 71.5% | viability, T/C (second compound 0.316 µM, first compound 10 µM): 61.5% | viability, T/C [9]: 73% | viability, T/C [10]: 81.4% | viability, T/C (second compound 1 µM, first compound 0.316 µM): 78.8% | viability, T/C (second compound 1 µM, first compound 1 µM): 67.6% | viability, T/C (second compound 1 µM, first compound 3.16 µM): 62.5% | viability, T/C (second compound 1 µM, first compound 10 µM): 66.8%
